From ChEMBL document CHEMBL5390211, “Discovery of N-Arylsulfonyl-Indole-2-Carboxamide Derivatives as Galectin-3 and Galectin-8 C-Terminal Domain Inhibitors” (ACS Med Chem Lett, 2023)

How the values were obtained:
[1] = molecular target: T1, Galectin-3 (Homo sapiens, UniProt P17931); experiment: Binding affinity to human Gal-3 expressed in Escherichia coli BL21 (DE3) cells by competitive fluorescence polarization assay
[2] = molecular target: T2, Galectin-8 (Homo sapiens, UniProt O00214); experiment: Binding affinity to C-terminal domain human Gal-8 expressed in Escherichia coli BL21 (DE3) cells by competitive fluorescence polarization assay
T2 sequence (O00214 whole entry): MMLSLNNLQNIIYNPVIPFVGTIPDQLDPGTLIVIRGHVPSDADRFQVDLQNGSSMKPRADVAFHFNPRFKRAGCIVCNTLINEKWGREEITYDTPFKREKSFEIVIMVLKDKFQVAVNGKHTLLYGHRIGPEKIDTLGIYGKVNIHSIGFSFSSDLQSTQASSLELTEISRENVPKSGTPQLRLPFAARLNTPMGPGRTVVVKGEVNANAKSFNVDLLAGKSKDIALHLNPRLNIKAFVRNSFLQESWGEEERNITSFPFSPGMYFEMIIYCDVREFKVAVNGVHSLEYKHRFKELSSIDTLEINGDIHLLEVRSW

[3] = molecular target: Galectin-1 (Homo sapiens, UniProt P09382); experiment: Binding affinity to human Gal-1 expressed in Escherichia coli BL21 (DE3) by competitive fluorescence polarization assay
Chain of Galectin-1 (P09382 whole entry, the tested form may be a part): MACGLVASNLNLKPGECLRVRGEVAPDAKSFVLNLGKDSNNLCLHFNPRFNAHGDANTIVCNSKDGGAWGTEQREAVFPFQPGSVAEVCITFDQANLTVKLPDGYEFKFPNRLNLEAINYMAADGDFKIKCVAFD

[4] = molecular target: T2, Galectin-8; experiment: Binding affinity to N-terminal domain human Gal-8 expressed in Escherichia coli BL21 (DE3) cells by competitive fluorescence polarization assay
[5] = molecular target: T1, Galectin-3; experiment: Binding affinity to human Gal-3 expressed in Escherichia coli BL21 (DE3) cells by isothermal titration calorimetry analysis
[6] = molecular target: T2, Galectin-8; experiment: Binding affinity to C-terminal domain human Gal-8 expressed in Escherichia coli BL21 (DE3) cells by isothermal titration calorimetry analysis
[7] = molecular target: T1, Galectin-3
Description: Binding affinity to human Gal-3 expressed in Escherichia coli BL21 (DE3) cells assessed as change in enthalpy by isothermal titration calorimetry analysis

[8] = molecular target: T3, Galectin-8 (Homo sapiens) (UniProt O00214)
T3 sequence (whole entry): T2 sequence (O00214 whole entry)
Description: Binding affinity to C-terminal domain human Gal-8 expressed in Escherichia coli BL21 (DE3) cells assessed as change in enthalpy by isothermal titration calorimetry analysis

[9] = molecular target: T1, Galectin-3; remark: listed apart in the source
Description: Binding affinity to human Gal-3 expressed in Escherichia coli BL21 (DE3) cells assessed as change in entropy by isothermal titration calorimetry analysis

[10] = molecular target: T3, Galectin-8 (Homo sapiens); remark: listed apart in the source
Description: Binding affinity to C-terminal domain human Gal-8 expressed in Escherichia coli BL21 (DE3) cells assessed as change in entropy by isothermal titration calorimetry analysis

[11] = molecular target: T1, Galectin-3; remark: listed apart in the source
Description: Binding affinity to human Gal-3 expressed in Escherichia coli BL21 (DE3) cells assessed as change in gibbs free energy by isothermal titration calorimetry analysis

[12] = molecular target: T3, Galectin-8 (Homo sapiens); remark: listed apart in the source
Description: Binding affinity to C-terminal domain human Gal-8 expressed in Escherichia coli BL21 (DE3) cells assessed as change in gibbs free energy by isothermal titration calorimetry analysis

[13] = tested on: MRC5; experiment: Inhibition of cell migration in human MRC5 cells assessed as reduction in would closure at 1 uM incubated for 48 hrs by Giemsa staining based microscopic analysis relative to control; type: toxicity
[14] = molecular target: T2, Galectin-8; experiment: Binding affinity to N-terminal domain human Gal-8 expressed in Escherichia coli BL21star (DE3) cells by competitive fluorescence polarization assay
[15] = Cytotoxicity against human MRC5 cells assessed as cell viability at 10 uM incubated for 24 hrs by MTT assay relative to control; type: toxicity, cell-based; details: read-out: Activity
[16] = Cytotoxicity against human MRC5 cells assessed as cell viability at 1 uM incubated for 24 hrs by MTT assay relative to control; type: toxicity, cell-based; details: read-out: Activity
[17] = molecular target: T2, Galectin-8; experiment: Binding affinity to N-terminal domain human Gal-8 expressed in Escherichia coli BL21 (DE3) cells by isothermal titration calorimetry analysis

T1 sequence (P17931 whole entry, the tested form may be a part): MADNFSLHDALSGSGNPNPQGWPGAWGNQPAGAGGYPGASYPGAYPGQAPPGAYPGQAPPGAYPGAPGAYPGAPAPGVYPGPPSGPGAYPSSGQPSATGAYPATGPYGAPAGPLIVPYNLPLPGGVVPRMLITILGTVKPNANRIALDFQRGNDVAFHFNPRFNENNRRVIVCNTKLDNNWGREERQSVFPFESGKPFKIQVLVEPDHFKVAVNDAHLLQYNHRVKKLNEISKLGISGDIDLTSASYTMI

Row | Kd [1] [µM] | Kd [2] [µM] | Molecule | also measured
1 | 14.3 | 8 | O=C(NS(=O)(=O)c1cc(Cl)c(Cl)s1)c1cc2cc(Oc3ccc(Br)c(F)c3)ccc2[nH]1 | –
2 | 10 | 18.7 | O=C(NS(=O)(=O)c1ccc2oc(=O)ccc2c1)c1cc2cc(Oc3ccc(Cl)c(Cl)c3)ccc2[nH]1 | Kd [3]: 86.9 µM; Kd [4]: > 300 µM; Kd [5]: 11 µM; Kd [6]: 2.01 µM; deltaH [7]: -3.82 kcal/mol; deltaH [8]: -1.01 kcal/mol; -TdeltaS [9]: -2.94 kcal/mol; -TdeltaS [10]: -6.76 kcal/mol; deltaG [11]: -6.77 kcal/mol; deltaG [12]: -7.77 kcal/mol
3 | 212 | > 300 | O=C(NS(=O)(=O)c1cc(Cl)c(Cl)s1)c1cc2cc(Oc3ccc(Cl)cn3)ccc2[nH]1 | –
4 | 121 | 57 | O=C(NS(=O)(=O)c1ccc(Cl)cc1Cl)c1cc2cc(Oc3ccc(F)cc3)ccc2[nH]1 | –
5 | 20.1 | 15.5 | O=C(NS(=O)(=O)c1ccc2c(c1)OCC2)c1cc2cc(Oc3ccc(Cl)c(Cl)c3)ccc2[nH]1 | –
6 | 30.5 | 9.6 | O=C(NS(=O)(=O)c1cc(Cl)c(Cl)s1)c1cc2cc(Oc3ccc(Cl)c(Cl)c3)ccc2o1 | Kd [3]: > 500 µM
7 | 224 | 253 | O=C(NS(=O)(=O)c1ccc(Cl)cc1Cl)c1cc2c(Oc3ccc(F)cc3)cccc2[nH]1 | –
8 | 784 | – | CC(C)c1ccc(Oc2ccc3cc(C(=O)NS(=O)(=O)c4ccc(Cl)cc4Cl)[nH]c3c2)cc1 | –
9 | 32.3 | 16 | O=C(NS(=O)(=O)c1ccc(F)cc1S(=O)(=O)C(F)(F)F)c1cc2cc(Oc3ccc(Cl)c(Cl)c3)ccc2[nH]1 | –
10 | 35.9 | 5.6 | O=C(NS(=O)(=O)c1sc(Cl)cc1Cc1ccccc1)c1cc2cc(Oc3ccc(Cl)c(Cl)c3)ccc2[nH]1 | Kd [3]: 96.1 µM
11 | 23.7 | 9.4 | O=C(NS(=O)(=O)c1cc(Cl)c(Cl)s1)c1cc2cc(Oc3ccc(Br)c(Cl)c3)ccc2[nH]1 | –
12 | 363 | – | CCOC(=O)c1ccc(S(=O)(=O)N(C)C(=O)c2cc3cc(Oc4ccc(Cl)c(Cl)c4)ccc3n2C)cc1 | –
13 | 21.9 | 17.3 | O=C(NS(=O)(=O)c1cc(Cl)sc1Cl)c1cc2cc(Oc3ccc(Cl)c(Cl)c3)ccc2[nH]1 | –
14 | 76.9 | 57 | O=C(NS(=O)(=O)c1ccn(Cl)n1)c1cc2cc(Oc3ccc(Cl)c(Cl)c3)ccc2[nH]1 | –
15 | 20 | 10.9 | O=C(NS(=O)(=O)c1cc(Cl)c(Cl)s1)c1cc2cc(Oc3ccc(Cl)c(Cl)c3)ccc2[nH]1 | Kd [3]: 70.8 µM; Kd [4]: > 300 µM
16 | 22.7 | 19.3 | O=C(NS(=O)(=O)c1cc(Cl)c(Cl)s1)c1cc2cc(Oc3ccc(Cl)cc3Cl)ccc2[nH]1 | –
17 | 321 | 24.6 | O=C(NS(=O)(=O)Cc1noc2ccccc12)c1cc2cc(Oc3ccc(Cl)c(Cl)c3)ccc2[nH]1 | –
18 | 74.2 | 22.9 | Cc1noc(C)c1S(=O)(=O)NC(=O)c1cc2cc(Oc3ccc(Cl)c(Cl)c3)ccc2[nH]1 | –
19 | 27.1 | 7.3 | O=C(NS(=O)(=O)c1cc(Cl)c(Cl)s1)c1cc2cc(Oc3ccc(Br)cc3F)ccc2[nH]1 | –

Row | Kd [1] [µM] | Kd [2] [µM] | Molecule | also measured
20 | 16 | 9.4 | O=C(NS(=O)(=O)c1ccc(Cl)cc1Cl)c1cc2cc(Oc3ccc(Cl)c(Cl)c3)ccc2[nH]1 | Kd [3]: 43.7 µM; Kd [4]: > 300 µM
21 | 33 | 14.9 | O=C(NS(=O)(=O)c1cc(F)c(F)c(F)c1)c1cc2cc(Oc3ccc(Cl)c(Cl)c3)ccc2[nH]1 | –
22 | 24.9 | 16.4 | O=C(NS(=O)(=O)c1ccccc1Cl)c1cc2cc(Oc3ccc(Cl)c(Cl)c3)ccc2[nH]1 | –
23 | – | – | LACTOSE, ANHYDROUS | Kd [6]: 93 µM; Kd [17]: 893 µM
24 | 39.2 | 17.7 | COc1cccc(S(=O)(=O)NC(=O)c2cc3cc(Oc4ccc(Cl)c(Cl)c4)ccc3[nH]2)c1 | –
25 | 27.3 | 19.2 | O=C(NS(=O)(=O)c1cc(Cl)c(Cl)s1)c1cc2cc(Oc3cccc(Cl)c3Br)ccc2[nH]1 | –
26 | 17.1 | 17.5 | CCOC(=O)c1ccc(S(=O)(=O)NC(=O)c2cc3cc(Oc4ccc(Cl)c(Cl)c4)ccc3[nH]2)cc1 | Kd [3]: 118 µM; Kd [4]: 228 µM
27 | 119 | 73 | O=C(O)c1ccc(S(=O)(=O)NC(=O)c2cc3cc(Oc4ccc(Cl)c(Cl)c4)ccc3[nH]2)cc1 | –
28 | 36.5 | 16.1 | CCOC(=O)c1ccc(S(=O)(=O)NC(=O)c2cc3cc(Oc4ccc(Cl)c(Cl)c4)ccc3n2C)cc1 | Kd [3]: > 500 µM; Kd [4]: > 300 µM
29 | 303 | 76.2 | O=C(NS(=O)(=O)c1ccc(Cl)cc1Cl)c1cc2ccc(Oc3ccc(F)cc3)cc2[nH]1 | –
30 | 30 | 19.2 | O=C(NS(=O)(=O)c1ccc([N+](=O)[O-])cc1)c1cc2cc(Oc3ccc(Cl)c(Cl)c3)ccc2[nH]1 | –
31 | 37.4 | 18.7 | O=C(NS(=O)(=O)c1ccccc1)c1cc2cc(Oc3ccc(Cl)c(Cl)c3)ccc2[nH]1 | –
32 | 10.6 | 8.2 | O=C(NS(=O)(=O)c1csc2ccccc12)c1cc2cc(Oc3ccc(Cl)c(Cl)c3)ccc2[nH]1 | –
33 | 80.9 | 18.1 | O=C(NS(=O)(=O)c1ccc(Cl)cc1)c1cc2cc(Oc3ccc(Cl)c(Cl)c3)ccc2[nH]1 | –
34 | 24.9 | 14.1 | O=C(NS(=O)(=O)c1cc(Cl)c(Cl)s1)c1cc2cc(Oc3ccc(Cl)cc3Br)ccc2[nH]1 | –
35 | 210 | 41.8 | O=C(NS(=O)(=O)c1ccccn1)c1cc2cc(Oc3ccc(Cl)c(Cl)c3)ccc2[nH]1 | –
36 | 15.5 | 18.5 | O=C(NS(=O)(=O)c1ccc(OC(F)(F)F)cc1)c1cc2cc(Oc3ccc(Cl)c(Cl)c3)ccc2[nH]1 | –
37 | 31 | 20.3 | Cc1nc(Cl)sc1S(=O)(=O)NC(=O)c1cc2cc(Oc3ccc(Cl)c(Cl)c3)ccc2[nH]1 | –

Row | Molecule | Kd [1] [µM] | Kd [2] [µM] | also measured
38 | OC[C@H]1O[C@@H](S[C@@H]2O[C@H](CO)[C@H](O)[C@H](n3cc(-c4cccc(F)c4)nn3)[C@H]2O)[C@H](O)[C@@H](n2cc(-c3cccc(F)c3)nn2)[C@H]1O [OLITIGALTIN] | – | 21.6 | Kd [4]: 281 µM; inhibition at 1 µM [13]: 49%; Kd [14]: 86 µM
39 | O=C(NS(=O)(=O)c1ccc2ncsc2c1)c1cc2cc(Oc3ccc(Cl)c(Cl)c3)ccc2[nH]1 | 7.6 | 8.3 | viability at 24 h, 10 µM [15]: 66%; Kd [3]: 107 µM; Kd [4]: 210 µM; Kd [5]: 4.12 µM; Kd [6]: 6.04 µM; viability at 24 h, 1 µM [16]: 95%; inhibition at 1 µM [13]: 14%; deltaH [7]: 1.28 kcal/mol; deltaH [8]: 4.91 kcal/mol; -TdeltaS [9]: -8.63 kcal/mol; -TdeltaS [10]: -12 kcal/mol; deltaG [11]: -7.35 kcal/mol; deltaG [12]: -7.12 kcal/mol
40 | O=C(NS(=O)(=O)c1sccc1Cc1ccccc1)c1cc2cc(Oc3ccc(Cl)c(Cl)c3)ccc2[nH]1 | 22.7 | 12.5 | viability at 24 h, 10 µM [15]: 99%; Kd [3]: 138 µM; Kd [4]: 203 µM; Kd [5]: 12.8 µM; Kd [6]: 2.06 µM; viability at 24 h, 1 µM [16]: 97%; inhibition at 1 µM [13]: 21%; deltaH [7]: -4.74 kcal/mol; deltaH [8]: -2.29 kcal/mol; -TdeltaS [9]: -1.94 kcal/mol; -TdeltaS [10]: -5.47 kcal/mol; deltaG [11]: -6.68 kcal/mol; deltaG [12]: -7.76 kcal/mol
